Experimental data: ChEMBL document CHEMBL3826908, “Bortezomib inhibits bacterial and fungal β-carbonic anhydrases” (Bioorg Med Chem, 2016)

Tests used:
[1] = Inhibition of Flaveria bidentis beta-carbonic anhydrase preincubated for 15 mins by stopped-flow CO2 hydration assay
[2] = Inhibition of Candida glabrata beta-carbonic anhydrase preincubated for 15 mins by stopped-flow CO2 hydration assay; design: species or system Nakaseomyces glabratus
[3] = Inhibition of Mycobacterium tuberculosis beta-carbonic anhydrase Rv3588 preincubated for 15 mins by stopped-flow CO2 hydration assay
[4] = Inhibition of Drosophila melanogaster beta-carbonic anhydrase preincubated for 15 mins by stopped-flow CO2 hydration assay
[5] = Inhibition of Malassezia globosa beta-carbonic anhydrase preincubated for 15 mins by stopped-flow CO2 hydration assay
[6] = Inhibition of Cryptococcus neoformans beta-carbonic anhydrase preincubated for 15 mins by stopped-flow CO2 hydration assay
[7] = Inhibition of Mycobacterium tuberculosis beta-carbonic anhydrase Rv3273 preincubated for 15 mins by stopped-flow CO2 hydration assay
Carbonic anhydrase 1 = Carbonic anhydrase 1 (Homo sapiens, UniProt P00915)
Sequence of Carbonic anhydrase 1 (P00915 whole entry): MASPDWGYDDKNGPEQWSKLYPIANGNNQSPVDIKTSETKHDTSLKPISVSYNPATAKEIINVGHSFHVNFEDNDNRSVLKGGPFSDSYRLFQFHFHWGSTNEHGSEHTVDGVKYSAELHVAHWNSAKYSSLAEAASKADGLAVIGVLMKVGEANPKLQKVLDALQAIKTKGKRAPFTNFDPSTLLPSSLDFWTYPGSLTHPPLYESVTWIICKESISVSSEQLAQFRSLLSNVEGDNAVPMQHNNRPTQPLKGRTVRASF
Description: Inhibition of human carbonic anhydrase-1 preincubated for 15 mins by stopped-flow CO2 hydration assay

[8] = molecular target: T1, Beta-carbonic anhydrase 1 (Mycobacterium tuberculosis, UniProt P9WPJ7); experiment: Inhibition of Mycobacterium tuberculosis beta-carbonic anhydrase Rv1284 preincubated for 15 mins by stopped-flow CO2 hydration assay
T1 sequence (P9WPJ7 whole entry): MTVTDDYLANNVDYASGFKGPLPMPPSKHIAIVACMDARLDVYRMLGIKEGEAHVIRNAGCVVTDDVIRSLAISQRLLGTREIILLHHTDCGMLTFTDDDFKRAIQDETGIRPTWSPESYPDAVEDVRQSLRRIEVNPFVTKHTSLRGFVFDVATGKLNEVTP

Carbonic anhydrase 2 = Carbonic anhydrase 2 (Homo sapiens, UniProt P00918)
Description: Inhibition of human carbonic anhydrase-2 preincubated for 15 mins by stopped-flow CO2 hydration assay

[9] = Inhibition of Candida albicans beta-carbonic anhydrase preincubated for 15 mins by stopped-flow CO2 hydration assay

| Structure (SMILES) | Ki [1] [µM] | Ki [2] [µM] | Ki [3] [µM] | Ki [4] [µM] | Ki [5] [µM] | Ki [6] [µM] | Ki [7] [µM] | Ki (Carbonic anhydrase 1) [µM] | Ki [8] [µM] | Ki (Carbonic anhydrase 2) [µM] | Ki [9] [µM] |
| --- | --- | --- | --- | --- | --- | --- | --- | --- | --- | --- | --- |
| CC(=O)Nc1nnc(S(N)(=O)=O)s1 [ACETAZOLAMIDE] | […] | 0.011 | 0.01 | 0.049 | 74 | 0.01 |  |  |  |  |  |
| CC(C)C[C@H](NC(=O)[C@H](Cc1ccccc1)NC(=O)c1cnccn1)B(O)O [BORTEZOMIB] | 8.45 | 5.73 | 4.2 | 11.3 | 3.24 | 4.7 | 6.5 | 1.29 | 7.3 | 1.16 | 1.12 |
| OB(O)c1ccccc1 [PHENYLBORONIC ACID] | 8 | 100 | 48 | > 100 | 89 | > 100 | 67 | > 100 | 58 | > 100 | > 100 |
